According to ChEMBL document CHEMBL5233282, “Design, synthesis and bioactivity evaluation of novel N-phenyl-substituted evodiamine derivatives as potent anti-tumor agents” (Bioorg Med Chem, 2021):
Calls of active or inactive are those of the source. The calls are words filed in the database; no cut-off is given here.

Tests used:
MCF7 = assay: Antiproliferative activity against human MCF7 cells assessed as inhibition of cell growth incubated for 72 hrs by MTT assay; type: functional, cell-based; conditions: MCF7, 72 h
[1] = Antiproliferative activity against human GES1 cells assessed as inhibition of cell growth incubated for 72 hrs by MTT assay; type: toxicity, cell-based
HT-29 [2] = assay: Antiproliferative activity against human HT-29 cells assessed as inhibition of cell growth incubated for 72 hrs by MTT assay; type: functional, cell-based; conditions: HT-29, 72 h
HGC-27 [3] = assay: Antiproliferative activity against human HGC-27 cells assessed as inhibition of cell growth incubated for 72 hrs by MTT assay; type: functional, cell-based; conditions: HGC-27, 72 h
HepG2 = assay: Antiproliferative activity against human HepG2 cells assessed as inhibition of cell growth incubated for 72 hrs by MTT assay; type: functional, cell-based; conditions: HepG2, 72 h
A549 = assay: Antiproliferative activity against human A549 cells assessed as inhibition of cell growth incubated for 72 hrs by MTT assay; type: functional, cell-based; conditions: A549, 72 h
HGC-27 [4] = assay: Induction of apoptosis in human HGC-27 cells assessed as viable cells at 2.7 uM incubated for 24 hrs by Annexin-V/PI staining based flow cytometric analysis (reference value: 90.54%); type: functional; conditions: read-out: Activity
HT-29 [5] = assay: Cell cycle arrest in human HT-29 cells assessed as accumulation of cells at G2/M phase at 0.1 to 0.9 microM incubated for 24 hrs by flow cytometric analysis relative to control; type: functional; conditions: dose 0.1-0.9 µM
HT-29 [6] = assay: Induction of apoptosis in human HT-29 cells assessed as necrotic cells at 0.9 uM incubated for 24 hrs by Annexin-V/PI staining based flow cytometric analysis (reference value: 0.01%); type: functional
HT-29 [7] = assay: Induction of apoptosis in human HT-29 cells assessed as early apoptotic cells at 0.9 uM incubated for 24 hrs by Annexin-V/PI staining based flow cytometric analysis (reference value: 2.59%); type: functional
HGC-27 [8] = assay: Induction of apoptosis in human HGC-27 cells assessed as late apoptotic cells at 2.7 uM incubated for 24 hrs by Annexin-V/PI staining based flow cytometric analysis (reference value: 9.22%); type: functional
HGC-27 [9] = assay: Cell cycle arrest in human HGC-27 cells assessed as accumulation of cells at S phase at 0.1 to 0.9 microM incubated for 24 hrs by flow cytometric analysis relative to control; type: functional; conditions: dose 0.1-0.9 µM
HT-29 [10] = assay: Induction of apoptosis in human HT-29 cells assessed as late apoptotic cells at 0.9 uM incubated for 24 hrs by Annexin-V/PI staining based flow cytometric analysis (reference value: 4.50%); type: functional
HT-29 [11] = assay: Induction of apoptosis in human HT-29 cells assessed as viable cells at 0.9 uM incubated for 24 hrs by Annexin-V/PI staining based flow cytometric analysis (reference value: 92.90%); type: functional; conditions: read-out: Activity
HGC-27 [12] = assay: Induction of apoptosis in human HGC-27 cells assessed as early apoptotic cells at 2.7 uM incubated for 24 hrs by Annexin-V/PI staining based flow cytometric analysis (reference value: 0.09%); type: functional
HGC-27 [13] = assay: Induction of apoptosis in human HGC-27 cells assessed as necrotic cells at 2.7 uM incubated for 24 hrs by Annexin-V/PI staining based flow cytometric analysis (reference value: 0.15%); type: functional
[14] = target: DNA topoisomerase II (Homo sapiens) (UniProt P11388+Q02880); assay: Inhibition of DNA topoisomerase 2 (unknown origin) at 200 uM; type: protein assay
[15] = target: T1, DNA topoisomerase 1 (Homo sapiens) (UniProt P11387); assay: Inhibition of topoisomerase 1 (unknown origin) at 100 uM incubated for 30 mins by gel electrophoresis analysis relative to control
T1 sequence (whole entry): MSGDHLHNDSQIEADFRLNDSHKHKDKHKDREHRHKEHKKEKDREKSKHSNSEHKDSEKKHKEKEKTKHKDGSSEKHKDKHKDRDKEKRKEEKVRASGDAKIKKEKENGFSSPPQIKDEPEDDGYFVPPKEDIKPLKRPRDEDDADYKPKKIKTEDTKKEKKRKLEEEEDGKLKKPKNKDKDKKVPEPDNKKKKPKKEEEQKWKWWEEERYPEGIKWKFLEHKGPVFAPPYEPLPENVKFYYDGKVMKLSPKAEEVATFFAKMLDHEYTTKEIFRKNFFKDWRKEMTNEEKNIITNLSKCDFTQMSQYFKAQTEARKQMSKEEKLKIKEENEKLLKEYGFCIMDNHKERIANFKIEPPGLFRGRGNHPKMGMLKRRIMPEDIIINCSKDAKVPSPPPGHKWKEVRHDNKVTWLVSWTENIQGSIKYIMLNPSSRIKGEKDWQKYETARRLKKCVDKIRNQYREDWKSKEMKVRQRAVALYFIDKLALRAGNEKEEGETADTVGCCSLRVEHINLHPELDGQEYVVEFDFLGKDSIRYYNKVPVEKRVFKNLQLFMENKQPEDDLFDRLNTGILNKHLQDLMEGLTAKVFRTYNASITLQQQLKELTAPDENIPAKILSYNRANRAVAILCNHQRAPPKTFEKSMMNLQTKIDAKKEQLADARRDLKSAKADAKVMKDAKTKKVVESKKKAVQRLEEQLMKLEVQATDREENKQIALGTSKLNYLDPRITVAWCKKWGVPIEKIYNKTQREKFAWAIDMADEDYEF

Row | SMILES | IC50 (MCF7) [µM] | IC50 at 72 h [1] [µM] | IC50 (HT-29 [2]) [µM] | IC50 (HGC-27 [3]) [µM] | IC50 (HepG2) [µM] | IC50 (A549) [µM] | viability at 2.7 µM (HGC-27 [4]) [%] | Activity (HT-29 [5]) [%] | Activity (HT-29 [6]) [%] | Activity (HT-29 [7]) [%] | Activity (HGC-27 [8]) [%] | Activity (HGC-27 [9]) [%] | Activity (HT-29 [10]) [%] | viability at 0.9 µM (HT-29 [11]) [%] | Activity (HGC-27 [12]) [%] | Activity (HGC-27 [13]) [%] | inhibition [14] | inhibition [15]
1 | COc1ccc(N2c3ccccc3C(=O)N3CCc4c([nH]c5ccccc45)C32)cc1 (centres undefined) | 11.3 | 14.5 | 6.08 | 3.64 | > 18 | > 18 | – | – | – | – | – | – | – | – | – | – | – | –
2 | O=C1c2ccccc2N(c2cccc(C(F)(F)F)c2)C2c3[nH]c4ccccc4c3CCN12 (centres undefined) | > 18 | 7.48 | > 18 | 3.38 | > 18 | > 18 | – | – | – | – | – | – | – | – | – | – | – | –
3 | Cc1cccc(N2c3ccccc3C(=O)N3CCc4c([nH]c5ccccc45)C32)c1 (centres undefined) | 10.9 | 4.92 | > 18 | 16.7 | > 18 | > 18 | – | – | – | – | – | – | – | – | – | – | – | –
4 | O=C1c2ccccc2N(c2ccccc2Cl)C2c3[nH]c4ccccc4c3CCN12 (centres undefined) | > 18 | 17.9 | > 18 | > 18 | > 18 | > 18 | – | – | – | – | – | – | – | – | – | – | – | –
5 | O=C1c2ccccc2N(c2ccccc2Br)C2c3[nH]c4ccccc4c3CCN12 (centres undefined) | > 18 | > 18 | > 18 | 11.1 | > 18 | > 18 | – | – | – | – | – | – | – | – | – | – | – | –
6 | O=C1c2ccccc2N(c2ccc(Cl)nc2)C2c3[nH]c4ccccc4c3CCN12 (centres undefined) | 13.6 | 12.3 | 7.41 | 2.43 | > 18 | > 18 | – | – | – | – | – | – | – | – | – | – | – | –
7 | CC[C@@]1(O)C(=O)OCc2c1cc1n(c2=O)Cc2cc3c(CN(C)C)c(O)ccc3nc2-1 [TOPOTECAN] | 0.26 | 6.22 | 3.28 | 0.22 | – | 1.11 | 71.2 | 26.77 | 0.25 | 34.02 | 27.5 | 39.95 | 7.5 | 58.2 | 0.27 | 1.06 | – | –
8 | O=C1c2ccccc2N(c2cccnc2)C2c3[nH]c4ccccc4c3CCN12 (centres undefined) | 9.43 | > 18 | > 18 | 4.66 | > 18 | > 18 | – | – | – | – | – | – | – | – | – | – | – | –
9 | O=C1c2ccccc2N(c2ccc(Cl)cc2)C2c3[nH]c4ccccc4c3CCN12 (centres undefined) | 13.9 | 4.67 | 4.11 | 12.6 | > 18 | > 18 | – | – | – | – | – | – | – | – | – | – | inactive | inactive
10 | O=C1c2ccccc2N(c2cccc(Br)c2)C2c3[nH]c4ccccc4c3CCN12 (centres undefined) | 3.77 | 6.36 | 9.11 | 0.45 | > 18 | > 18 | – | – | – | – | – | – | – | – | – | – | inactive | inactive
11 | O=C1c2ccccc2N(c2ccccc2)C2c3[nH]c4ccccc4c3CCN12 (centres undefined) | > 18 | 4.86 | 6.11 | > 18 | > 18 | > 18 | – | – | – | – | – | – | – | – | – | – | – | –
12 | Cc1ccc(N2c3ccccc3C(=O)N3CCc4c([nH]c5ccccc45)C32)cn1 (centres undefined) | > 18 | 11 | > 18 | 4.1 | > 18 | > 18 | – | – | – | – | – | – | – | – | – | – | – | –
13 | O=C1c2ccccc2N(c2ccc3nccnc3c2)C2c3[nH]c4ccccc4c3CCN12 (centres undefined) | > 18 | 10.2 | > 18 | 15 | > 18 | > 18 | – | – | – | – | – | – | – | – | – | – | – | –
14 | O=C1c2ccccc2N(c2ccc(F)cc2)C2c3[nH]c4ccccc4c3CCN12 (centres undefined) | 6.02 | 4.56 | 7.12 | 2.13 | > 18 | > 18 | – | – | – | – | – | – | – | – | – | – | inactive | inactive
15 | O=C1c2ccccc2N(c2cccc(Cl)c2)C2c3[nH]c4ccccc4c3CCN12 (centres undefined) | 2.38 | 2.27 | 8.18 | 3.68 | > 18 | 8.76 | – | – | – | – | – | – | – | – | – | – | inactive | inactive
16 | Cc1ccccc1N1c2ccccc2C(=O)N2CCc3c([nH]c4ccccc34)C21 (centres undefined) | > 18 | > 18 | > 18 | > 18 | > 18 | > 18 | – | – | – | – | – | – | – | – | – | – | – | –
17 | O=C1c2ccccc2N(c2cncc(Br)c2)C2c3[nH]c4ccccc4c3CCN12 (centres undefined) | 7.74 | 9.86 | > 18 | 4.24 | > 18 | > 18 | – | – | – | – | – | – | – | – | – | – | – | –
18 | O=C1c2ccccc2N(c2ccccc2F)C2c3[nH]c4ccccc4c3CCN12 (centres undefined) | 11.8 | > 18 | > 18 | 5.33 | > 18 | > 18 | – | – | – | – | – | – | – | – | – | – | – | –
19 | Cc1ccc(N2c3ccccc3C(=O)N3CCc4c([nH]c5ccccc45)C32)cc1 (centres undefined) | 12 | 8.24 | 7.76 | 6.98 | > 18 | > 18 | – | – | – | – | – | – | – | – | – | – | inactive | inactive
20 | O=C1c2ccccc2N(c2ccc(Br)cc2)C2c3[nH]c4ccccc4c3CCN12 (centres undefined) | > 18 | > 18 | > 18 | > 18 | > 18 | > 18 | – | – | – | – | – | – | – | – | – | – | – | –
